Values quoted from earlier work, collected in US11622958B2, “Bifunctional prodrugs” (GEORG-AUGUST-UNIVERSITÄT GÖTTINGEN STIFTUNG ÖFFENTLICHEN …, priority 2015, dated 2023).

Columns and labels:
[1] = not given; remark: listed apart in the source

COc1c(O)c2c(c3cc(C(=O)N4CCc5c4c(O)c(OC)c4[nH]c(C(=O)N6CC7CC78C6=CC(=O)c6[nH]cc(C)c68)cc54)[nH]c13)CCN2C(N)=O (centres unmarked) [CC-1065]
IC50: 20 pM
hepatotoxicity in animal experiments [1]: delayed lethal hepatotoxicity
